Measurements published in ChEMBL document CHEMBL3885861, “Open TG-GATES”.

Species: Rattus norvegicus
Test: Open TG-GATES - Regimen: Single
Type: toxicity, organism-based, Sprague-Dawley
Set-up: regimen Single, gender Male, age 6 weeks
Details: in vivo, po, 60 mg/kg, route gavage, dose level Low; for APTT / Bas / Eos / Fbg / Ht / MCH / MCHC / MCV / Mono / PT / Plat / RBC / Ret / WBC: tissue Blood; for KIDNEY_L / KIDNEY_R / KIDNEY_TOTAL: tissue Kidney; for LIVER: tissue Liver

CC(=O)Nc1nnc(S(N)(=O)=O)s1 [ACETAZOLAMIDE] was tested, and the gamma-GTP (6 h, tissue Plasma) was 1 IU/L, the TERMINAL_BW (9 h) was 205.8 g and the APTT (9 h) was 21.4 s. The Bas (9 h) was 0%, the Eos (9 h) was 0.8% and the Fbg (9 h) was 337.8 mg/dL. It also gave a Ht (9 h) of 41.7%, an MCH (9 h) of 20.5 pg and an MCHC (9 h) of 31.4%. The MCV (9 h) was 65.2 fL, the Mono (9 h) was 1.8% and the PT (9 h) was 16.7 s. The Plat (9 h) was 125.8 x10_4/uL, the RBC (9 h) was 640.2 x10_4/ul and the Ret (9 h) was 8.7%. The WBC (9 h) was 76.9 x10_2/uL, the KIDNEY_L (9 h) was 0.9 g and the KIDNEY_R (9 h) was 0.9 g. For the same compound, the KIDNEY_TOTAL (9 h) was 1.8 g, the LIVER (9 h) was 8.5 g and the ALP (9 h, tissue Plasma) was 1425.8 IU/L. The AST (9 h, tissue Plasma) was 59.8 IU/L, the BUN (9 h, tissue Plasma) was 13.8 mg/dL and the CRE (9 h, tissue Plasma) was 0.2 mg/dL. The Ca (9 h, tissue Plasma) was 11.1 mg/dL, the Cl (9 h, tissue Plasma) was 112.8 meq/L and the DBIL (9 h, tissue Plasma) was 0 mg/dL. The GLC (9 h, tissue Plasma) was 190.8 mg/dL, the IP (9 h, tissue Plasma) was 9.5 mg/dL and the K (9 h, tissue Plasma) was 4 meq/L. For the same compound, the LDH (9 h, tissue Plasma) was 158.2 IU/L, the Na (9 h, tissue Plasma) was 140 meq/L and the PL (9 h, tissue Plasma) was 133.4 mg/dL. For the same compound, the RALB (9 h, tissue Plasma) was 3.3 g/dL, the TBIL (9 h, tissue Plasma) was 0.026 mg/dL and the TC (9 h, tissue Plasma) was 81.8 mg/dL. It also gave a TG (9 h, tissue Plasma) of 35.4 mg/dL, a TP (9 h, tissue Plasma) of 5.9 g/dL and a gamma-GTP (9 h, tissue Plasma) of 1 IU/L. The TERMINAL_BW (24 h) was 217.9 g, the APTT (24 h) was 20.2 s and the Bas (24 h) was 0%. It also gave an Eos (24 h) of 0.8%, a Fbg (24 h) of 303.8 mg/dL and a Ht (24 h) of 40.5%. The MCH (24 h) was 20.9 pg, the MCHC (24 h) was 33.3% and the MCV (24 h) was 62.6 fL. It also gave a Mono (24 h) of 1.6%, a PT (24 h) of 16.7 s and a Plat (24 h) of 117.7 x10_4/uL. For the same compound, the RBC (24 h) was 647 x10_4/ul, the Ret (24 h) was 7.7% and the WBC (24 h) was 86.4 x10_2/uL. For the same compound, the KIDNEY_L (24 h) was 0.9 g, the KIDNEY_R (24 h) was 1 g and the KIDNEY_TOTAL (24 h) was 1.9 g. The LIVER (24 h) was 9.8 g, the ALP (24 h, tissue Plasma) was 1708.2 IU/L and the AST (24 h, tissue Plasma) was 61.2 IU/L. For the same compound, the BUN (24 h, tissue Plasma) was 20 mg/dL, the CRE (24 h, tissue Plasma) was 0.1 mg/dL and the Ca (24 h, tissue Plasma) was 10.9 mg/dL. For the same compound, the Cl (24 h, tissue Plasma) was 106.8 meq/L, the DBIL (24 h, tissue Plasma) was 0 mg/dL and the GLC (24 h, tissue Plasma) was 179.4 mg/dL. For the same compound, the IP (24 h, tissue Plasma) was 7.5 mg/dL, the K (24 h, tissue Plasma) was 4 meq/L and the LDH (24 h, tissue Plasma) was 156.8 IU/L. The Na (24 h, tissue Plasma) was 142.6 meq/L, the PL (24 h, tissue Plasma) was 136.2 mg/dL and the RALB (24 h, tissue Plasma) was 3.2 g/dL. The TBIL (24 h, tissue Plasma) was 0.01 mg/dL, the TC (24 h, tissue Plasma) was 73.2 mg/dL and the TG (24 h, tissue Plasma) was 109.6 mg/dL.
